Key:
Assay in all cases: standardised AUC of viability dose-response curve (72 h) (fraction (0-1)); higher = less growth inhibition (more resistant)
MES-SA = test system: MES-SA
How it was run: (§1)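 Sarcoma cell lines in 384-well plates were treated in triplicate for 72 h with 2.5 µl of a compound dilution series, made in 1:3 steps from 10 mM to 0.0002 mM on the compound plate. ATPLite viability was scaled from 1 (full) to 0 (none) and fitted per drug and cell line with a four-parameter log-logistic model. The values are standardised areas under the dose-response curve in log-dose space, from a modified drexplorer computeAUC. On that scale, 1 means no response and 0 means full response.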

SW1353 = test system: SW1353
How it was run: as §1

SK-LMS-1 = test system: SK-LMS-1
How it was run: as §1

SW872 = test system: SW872
How it was run: as §1

RD-ES = test system: RD-ES
How it was run: as §1

HS729 = test system: HS729
How it was run: as §1

SK-ES-1 = test system: SK-ES-1
How it was run: as §1

A204 = test system: A204
How it was run: as §1

HT1080 = test system: HT1080
How it was run: as §1

KHOS-NP = test system: KHOS-NP
How it was run: as §1

SW684 = test system: SW684
How it was run: as §1

RD = test system: RD
How it was run: as §1

G401 = test system: G401
How it was run: as §1

SYO-1 = test system: SYO-1
How it was run: as §1

VA-ES-BJ = test system: VA-ES-BJ
How it was run: as §1

KHOS-240S = test system: KHOS-240S
How it was run: as §1

SW982 = test system: SW982
How it was run: as §1

Structure (SMILES) | standardised AUC (MES-SA) | standardised AUC (SW1353) | standardised AUC (SK-LMS-1) | standardised AUC (SW872) | standardised AUC (RD-ES) | standardised AUC (HS729) | standardised AUC (SK-ES-1) | standardised AUC (A204) | standardised AUC (HT1080) | standardised AUC (KHOS-NP) | standardised AUC (SW684) | standardised AUC (RD) | standardised AUC (G401) | standardised AUC (SYO-1) | standardised AUC (VA-ES-BJ) | standardised AUC (KHOS-240S) | standardised AUC (SW982)
Cc1cn(-c2cc(NC(=O)c3ccc(C)c(Nc4nccc(-c5cnccn5)n4)c3)cc(C(F)(F)F)c2)cn1 [RADOTINIB] | 1 | 1 | 1 | 0.967 | 0.996 | 0.976 | 0.999 | 0.894 | 0.997 | 0.992 | 1 | 0.992 | 0.977 | 0.929 | 1 | 0.988 | 0.995
COc1cc(Nc2c(C#N)cnc3cc(OCCCN4CCN(C)CC4)c(OC)cc23)c(Cl)cc1Cl [BOSUTINIB] | 0.861 | 0.895 | 0.932 | 0.848 | 0.856 | 0.906 | 0.78 | 0.93 | 0.917 | 0.87 | 0.883 | 0.895 | 0.932 | 0.909 | 0.85 | 0.851 | 0.795
NC(=O)c1cccc2cn(-c3ccc([C@@H]4CCCNC4)cc3)nc12 [NIRAPARIB] | 0.961 | 0.966 | 0.979 | 1 | 0.874 | 0.977 | 0.8 | 0.949 | 0.999 | 1 | 0.989 | 0.956 | 0.971 | 0.842 | 0.966 | 0.983 | 0.94
Cc1ccc(C(=O)OCc2ccc([C@@H](CN)C(=O)Nc3ccc4cnccc4c3)cc2)c(C)c1 [NETARSUDIL] | 0.857 | 0.855 | 0.886 | 0.893 | 0.914 | 0.966 | 0.921 | 0.85 | 0.952 | 0.951 | 0.926 | 0.923 | 0.949 | 0.884 | 0.985 | 0.828 | 0.91
N#CCC1(n2cc(-c3ncnc4[nH]ccc34)cn2)CN(C2CCN(C(=O)c3ccnc(C(F)(F)F)c3F)CC2)C1 [ITACITINIB] | 0.977 | 0.95 | 0.948 | 0.922 | 0.975 | 0.853 | 0.969 | 0.965 | 0.977 | 0.946 | 0.983 | 0.997 | 0.968 | 0.867 | 0.948 | 0.96 | 0.974
CCCCCCCCCCCCCCCCCCOP(=O)([O-])OC1CC[N+](C)(C)CC1 [PERIFOSINE] | 0.954 | 0.962 | 0.941 | 0.915 | 0.994 | 0.924 | 0.952 | 0.982 | 0.966 | 0.966 | 0.999 | 0.996 | 0.994 | 0.946 | 0.968 | 0.983 | 0.99
FC(F)(F)c1ccc(CNc2ccc(Cc3c[nH]c4ncc(Cl)cc34)cn2)cn1 [PEXIDARTINIB] | 0.978 | 0.935 | 0.979 | 0.939 | 0.991 | 0.903 | 0.97 | 0.837 | 0.953 | 0.955 | 0.974 | 1 | 0.946 | 0.861 | 0.976 | 0.975 | 1
Cc1c(F)cc(C(=O)NC2CC2)cc1-c1ccc(C(=O)NCC(C)(C)C)cn1 [LOSMAPIMOD] | 0.944 | 0.993 | 0.973 | 0.992 | 0.95 | 0.87 | 0.929 | 0.977 | 0.999 | 0.999 | 0.995 | 0.981 | 0.941 | 0.933 | 0.941 | 0.944 | 0.991
NC(=O)c1cnc2[nH]ccc2c1N[C@@H]1[C@@H]2CC3C[C@H]1C[C@@](O)(C3)C2 [PEFICITINIB] | 0.949 | 1 | 0.985 | 0.977 | 0.983 | 0.988 | 0.938 | 0.912 | 1 | 0.982 | 0.988 | 1 | 1 | 0.888 | 0.995 | 0.955 | 0.929
Cc1nc(Nc2ncc(C(=O)Nc3c(C)cccc3Cl)s2)cc(N2CCN(CCO)CC2)n1 [DASATINIB] | 0.949 | 0.712 | 0.78 | 0.716 | 0.949 | 0.774 | 0.907 | 0.612 | 0.941 | 0.725 | 0.767 | 0.658 | 0.86 | 0.736 | 0.651 | 0.617 | 0.607
COc1cc2nccc(Oc3ccc(NC(=O)C4(C(=O)Nc5ccc(F)cc5)CC4)cc3)c2cc1OC [CABOZANTINIB] | 0.871 | 0.855 | 0.661 | 0.908 | 0.919 | 0.809 | 0.89 | 0.656 | 0.965 | 0.96 | 0.827 | 0.95 | 0.856 | 0.714 | 0.913 | 0.923 | 0.916
CNC(=O)c1cc(Oc2ccc(NC(=O)Nc3ccc(Cl)c(C(F)(F)F)c3)cc2)ccn1 [SORAFENIB] | 0.925 | 0.951 | 0.917 | 0.978 | 0.966 | 0.943 | 0.949 | 0.756 | 0.944 | 0.907 | 0.936 | 0.951 | 0.916 | 0.841 | 0.95 | 0.93 | 0.975
